# Assay results published in patent US9560869B2, “Food composition comprising desferrichrysin” (NESTEC S.A., priority 2013, dated 2017).
# Columns and labels:
# [1] = Colour change of fortified yoghurt during storage at 37° C. for 120 days (CIELAB); format: physicochemical; conditions: for colour change over time (in words): stored at 37° C. for 120 days
# Description: (§1) Commercial yoghurt, Nestlé Jogolino™ Strawberry/Banana yoghurt containing 15% banana puree and 10% strawberry puree was iron fortified by the addition of different iron salts to 5 kg yoghurt as reported in the table below. The amounts were chosen to provide approximately 0.8 mg iron per 100 g yoghurt. […] Colour measurements were performed in 1×1 cm polystyrene cuvettes using an X-Rite ColorEye 7000A colorimeter. The colorimeter was set up with a D65 light source, 10 degree observer angle and with specular component included. The colour difference between the yoghurt with no iron salts and the iron fortified yoghurt was measured for each iron salt and expressed as ΔEab* using the CIELAB colour scale. 70 g samples of the fortified yoghurt samples described above were placed in 100 mL glass jars and stored at 37° C. for 120 days. Colour measurements were performed at a range of time intervals.
# [2] = in vivo; cited from earlier work
# [3] = Colour difference of iron fortified strawberry/banana yoghurt vs yoghurt with no iron salts after flash pasteurization (CIELAB); format: physicochemical
# Description: as §1, with “scale.” for “scale. 70 g samples of the fortified yoghurt samples described above were placed in 100 mL glass jars and stored at 37° C. for 120 days. Colour measurements were performed at a range of time intervals.”
Compound,colour change over time (in words) [1],bioavailability of iron (in words) [2],"ΔEab* day 7 ([1]; stored at 37° C., vs colour immediately after pasteurization, day 7)","ΔEab* day 30 ([1]; stored at 37° C., vs colour immediately after pasteurization, day 30)","ΔEab* day 60 ([1]; stored at 37° C., vs colour immediately after pasteurization, day 60)","ΔEab* day 120 ([1]; stored at 37° C., vs colour immediately after pasteurization, day 120)",colour compared with yoghurt with no added iron (in words) ([3]; after flash pasteurization at 105° C. for 2 minutes),"ΔEab* ([3]; colour difference vs yoghurt with no iron salts, approx. 0.8 mg iron per 100 g yoghurt, flash pasteurized at 105° C. for 2 minutes)"
"O=S(=O)([O-])[O-].[Fe+2] [FeSO4 × H20, Ferrous sulphate, reference compound]",much greater colour changes,,,,,,,
Ferrichrysin,smaller than the yoghurts fortified by the other iron salts,good source of bioavailable iron,1.03,1.32,3.77,6.46,closest colour to the yoghurt with no added iron,1.57
